Data reported in patent US20220241409A1, “WATER SOLUBLE ADJUVANT AND COMPOSITION CONTAINING SAME” (Sumitomo Dainippon Pharma Co., Ltd., priority 2019, published 2022).

Experiments:
mouse TLR7 = molecular target: T1, mouse TLR7 (Mus musculus, UniProt P58681); test: Mouse TLR7 reporter gene assay (Test 2); assay type: cell-based; conditions: half-maximal SEAP induction, HEK-Blue mTLR7 cell line, overnight 37° C., 0.1% DMSO
T1 construct: expresses full-length mouse TLR7 and secretory SEAP reporter gene; host or cells: HEK-Blue mTLR7 cell line
T1 sequence (P58681 27-1050): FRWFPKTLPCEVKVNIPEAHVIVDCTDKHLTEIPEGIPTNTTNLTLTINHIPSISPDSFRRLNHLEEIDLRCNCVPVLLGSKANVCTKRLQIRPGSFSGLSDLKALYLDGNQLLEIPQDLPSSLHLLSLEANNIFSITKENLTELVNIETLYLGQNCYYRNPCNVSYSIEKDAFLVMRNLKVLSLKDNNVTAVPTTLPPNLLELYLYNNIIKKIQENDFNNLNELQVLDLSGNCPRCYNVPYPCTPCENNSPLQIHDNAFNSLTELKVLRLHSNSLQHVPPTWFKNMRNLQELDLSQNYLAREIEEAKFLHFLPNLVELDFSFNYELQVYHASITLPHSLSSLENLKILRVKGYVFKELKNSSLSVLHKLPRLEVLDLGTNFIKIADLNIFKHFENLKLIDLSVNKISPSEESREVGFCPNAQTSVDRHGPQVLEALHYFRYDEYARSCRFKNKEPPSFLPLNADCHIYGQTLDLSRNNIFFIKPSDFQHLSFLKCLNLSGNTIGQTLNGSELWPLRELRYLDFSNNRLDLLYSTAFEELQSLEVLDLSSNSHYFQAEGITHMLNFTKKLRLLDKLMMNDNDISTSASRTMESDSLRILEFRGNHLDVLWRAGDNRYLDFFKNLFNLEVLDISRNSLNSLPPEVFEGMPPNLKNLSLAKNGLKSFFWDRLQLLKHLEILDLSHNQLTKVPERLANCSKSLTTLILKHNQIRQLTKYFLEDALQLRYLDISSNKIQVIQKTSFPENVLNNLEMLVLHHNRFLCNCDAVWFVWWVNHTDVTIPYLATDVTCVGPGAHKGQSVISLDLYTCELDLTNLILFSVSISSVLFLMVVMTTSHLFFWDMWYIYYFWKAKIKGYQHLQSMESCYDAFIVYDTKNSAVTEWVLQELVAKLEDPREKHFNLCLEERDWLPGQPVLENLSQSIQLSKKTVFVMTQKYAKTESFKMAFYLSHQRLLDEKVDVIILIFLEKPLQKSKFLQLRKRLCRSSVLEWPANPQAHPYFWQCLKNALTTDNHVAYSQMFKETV
Source text: HEK-Blue™ mTLR7 cell line (Invivogen) is a stably co-transfected cell line which expresses full-length mouse TLR7 and secretory SEAP reporter gene under the transcriptional regulation of an NF-κB response element. The TLR7 expression of the cell line has been already tested by RT-PCR. Transfectants with stable expression were selected using the antibiotic blasticidin and Zeocin. TLR signaling leads to the translocation of NF-κB and the activation of the promoter results in expression of the SEAP gene. TLR7-specific activation was assessed by determining the level of SEAP produced following overnight incubation of the cells at 37° C. with each compound prepared in Examples and Reference examples in the presence of 0.1% (v/v) DMSO. The mouse TLR7 activity for the present compound was assessed by mouse TLR7 reporter gene assay, and the results are shown in Tables 8 and 9 as the compound concentration which produced half of the maximal level of SEAP induction (EC50).

human TLR7 = molecular target: T2, human TLR7 (Homo sapiens, UniProt Q9NYK1); test: Human TLR7 reporter gene assay (Test 1); assay type: cell-based; conditions: half-maximal SEAP induction, TLR7/NF-κB/SEAPorter HEK293 cell line, overnight 37° C., 0.1% DMSO
T2 construct: expresses full-length human TLR7 and secretory alkaline phosphatase (SEAP) reporter gene; host or cells: TLR7/NF-κB/SEAPorter HEK293 cell line
T2 sequence (Q9NYK1 27-1049): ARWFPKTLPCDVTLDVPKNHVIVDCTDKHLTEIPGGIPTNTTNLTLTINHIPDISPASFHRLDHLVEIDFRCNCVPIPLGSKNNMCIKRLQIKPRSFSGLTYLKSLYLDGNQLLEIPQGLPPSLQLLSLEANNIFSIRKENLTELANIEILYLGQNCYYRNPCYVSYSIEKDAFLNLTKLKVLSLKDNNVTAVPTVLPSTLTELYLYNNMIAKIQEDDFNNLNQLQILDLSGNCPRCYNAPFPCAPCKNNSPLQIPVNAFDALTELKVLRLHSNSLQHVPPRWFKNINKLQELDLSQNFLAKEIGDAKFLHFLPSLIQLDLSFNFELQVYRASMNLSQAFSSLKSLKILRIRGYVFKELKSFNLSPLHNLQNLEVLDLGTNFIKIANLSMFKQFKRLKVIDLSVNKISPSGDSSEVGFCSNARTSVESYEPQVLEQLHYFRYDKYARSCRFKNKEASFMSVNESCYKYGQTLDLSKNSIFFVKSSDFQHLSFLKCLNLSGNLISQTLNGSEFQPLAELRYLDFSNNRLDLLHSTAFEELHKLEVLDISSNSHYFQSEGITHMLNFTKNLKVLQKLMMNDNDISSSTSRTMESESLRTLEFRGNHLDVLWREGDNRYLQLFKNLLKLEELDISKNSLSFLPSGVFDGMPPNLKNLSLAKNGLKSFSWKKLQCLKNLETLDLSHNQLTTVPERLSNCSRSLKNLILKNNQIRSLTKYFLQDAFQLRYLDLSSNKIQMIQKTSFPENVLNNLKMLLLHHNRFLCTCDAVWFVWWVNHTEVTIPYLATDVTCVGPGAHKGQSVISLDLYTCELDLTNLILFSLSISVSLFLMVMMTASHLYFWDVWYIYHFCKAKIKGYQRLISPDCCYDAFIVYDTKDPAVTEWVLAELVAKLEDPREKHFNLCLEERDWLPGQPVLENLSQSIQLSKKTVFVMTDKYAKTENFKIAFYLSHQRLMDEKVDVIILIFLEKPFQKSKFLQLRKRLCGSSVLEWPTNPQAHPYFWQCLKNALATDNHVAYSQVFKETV
Source text: TLR7/NF-κB/SEAPorter™ HEK293 cell line (Imgenex Corporation) is a stably co-transfected cell line which expresses full-length human TLR7 and secretory alkaline phosphatase (SEAP) reporter gene under the transcriptional regulation of an NF-κB response element. The TLR7 expression of the cell line has been already tested by flow cytometry. Transfectants with stable expression were selected using the antibiotic blasticidin and Geneticin. TLR signaling leads to the translocation of NF-κB and the activation of the promoter results in expression of the SEAP gene. TLR7-specific activation was assessed by determining the level of SEAP produced following overnight incubation of the cells at 37° C. with each compound prepared in Examples and Reference examples in the presence of 0.1% (v/v) dimethylsulfoxide (DMSO). The human TLR7 activity for the present compound was assessed by human TLR7 reporter gene assay, and the results are shown in Tables 6 and 7 as the compound concentration which produced half of the maximal level of SEAP induction (EC50).

## CCCCOc1nc(N)c2[nH]c(=O)n(Cc3ccc(CN(C)CCOCCOCCOCCOCCO)nc3)c2n1 [Example 2, 6-amino-2-butoxy-9-{[6-(16-hydroxy-2-methyl-5,8,11,14-tetraoxa-2-azahexadecan-1-yl)pyridin-3-yl]methyl}-7,9-dihydro-8H-purin-8-one-trifluoroacetate]
Mouse TLR7; Table 8, Examples
  EC50: 510 nM
Human TLR7; Table 6, Examples
  EC50: 774 nM

## CCCCOc1nc(N)c2[nH]c(=O)n(Cc3ccc(CN(C)CCOCCOCCOCCOCCO)cc3)c2n1 [Example 3, 6-amino-2-butoxy-9-{[4-(16-hydroxy-2-methyl-5,8,11,14-tetraoxa-2-azahexadecan-1-yl)phenyl]methyl}-7,9-dihydro-8H-purin-8-one]
Mouse TLR7; Table 8, Examples
  EC50: 42 nM
Human TLR7; Table 6, Examples
  EC50: 24 nM

## CCCCOc1nc(N)c2[nH]c(=O)n(Cc3ccc(CNC)nc3)c2n1 [Reference example 12, reference compound]
Mouse TLR7; Table 9, Reference examples
  EC50: 251 nM
Human TLR7; Table 7, Reference examples
  EC50: 578 nM

## CCCCOc1nc(N)c2[nH]c(=O)n(Cc3ccc(CNC)cc3)c2n1 [Reference example 14, reference compound]
Mouse TLR7; Table 9, Reference examples
  EC50: 23 nM
Human TLR7; Table 7, Reference examples
  EC50: 12 nM
